The results in this text go back to ChEMBL document CHEMBL5126637, “Discovery of Phenolic Matrix Metalloproteinase Inhibitors by Peptide Microarray for Osteosarcoma Treatment” (J Nat Prod, 2022).

A short description of series [1]: Toxicity in human HCT-116 cells assessed as cell viability at 2.5 umol/L incubated for 24 hrs by MTT assay relative to control. It counts as cell-based. As to conditions: dose 2.5 µmol/L, read-out: Activity.
Series [2] in a line: Toxicity in human MCF7 cells assessed as cell viability at 2.5 umol/L incubated for 24 hrs by MTT assay relative to control. As to conditions: dose 2.5 µmol/L, read-out: Activity. It counts as cell-based.
Series [3] has as its target T1, Collagenase 3 (Homo sapiens, UniProt P45452). In words: Inhibition of MMP13 in human U2OS cells at 5 umol/L by peptide microarray-based fluorescence assay. As to conditions: dose 5.0 µmol/L. It counts as cell-based.
Series [4] concerns the target Matrix metalloproteinase-9 (Homo sapiens, UniProt P14780). Kind of series: Inhibition of MMP9 in human U2OS cells at 5 umol/L by peptide microarray-based fluorescence assay. As to conditions: dose 5.0 µmol/L. It counts as cell-based.
Series [5] has as its target T1, Collagenase 3. In words: Inhibition of MMP13 in human U2OS cells at 1 umol/L by peptide microarray-based fluorescence assay. It counts as cell-based. As to conditions: dose 1.0 µmol/L.
Series [6] has as its target T1, Collagenase 3. In words: Inhibition of MMP13 in human U2OS cells by peptide microarray-based fluorescence assay. It is filed as cell-based.
In series [7] the test system is U2OS. In words: Inhibition of cell migration of human U2OS cells at 2.5 umol/L incubated for 24 hrs by would healing assay. As to conditions: dose 2.5 µmol/L. It counts as functional, cell-based.
Series [8] is described as follows: Toxicity in human NCM460 cells assessed as cell viability at 2.5 umol/L incubated for 24 hrs by MTT assay relative to control. It is filed as cell-based. As to conditions: dose 2.5 µmol/L, read-out: Activity. In general terms: Tetrazolium assays rely on reduction of a dye to a coloured formazan, in cell work by metabolically active cells.
Series [9] can be described thus: Toxicity in human HL7702 cells assessed as cell viability at 2.5 umol/L incubated for 24 hrs by MTT assay relative to control. It counts as cell-based, L02. As to conditions: dose 2.5 µmol/L, read-out: Activity.
Series [10] can be described thus: Toxicity in human HEK293T cells assessed as cell viability at 2.5 umol/L incubated for 24 hrs by MTT assay relative to control. It counts as cell-based, HEK-293T. As to conditions: dose 2.5 µmol/L, read-out: Activity.
Series [11] in a line: Toxicity in human MDA-MB-231 cells assessed as cell viability at 2.5 umol/L incubated for 24 hrs by MTT assay relative to control. It counts as cell-based. As to conditions: dose 2.5 µmol/L, read-out: Activity.
Series [12] in a line: Toxicity in human U2OS cells assessed as cell viability at 2.5 umol/L incubated for 24 hrs by MTT assay relative to control. It counts as cell-based. As to conditions: dose 2.5 µmol/L, read-out: Activity.
The subject of series [13] is U2OS. In words: Antitumor activity against human U2OS cells xenografted in NOD/SCID mouse assessed as inhibition of growth of both primary and metastatic tumors at 34 ug, iv dosed once every 2 days for 6 days successively relative to control. It is filed as functional, organism-based. As to conditions: dose 34.0 µg, time 6.0 day. A general note: In xenograft studies the graft and the host belong to different species.

Series [14] deals with U2OS. In words: Antitumor activity against human U2OS cells xenografted in NOD/SCID mouse assessed as inhibition of distant organ metastasis at 34 ug, iv dosed once every 2 days for 6 days successively relative to control. It is filed as functional, organism-based. As to conditions: dose 34.0 µg, time 6.0 day.
The subject of series [15] is U2OS. In words: Antitumor activity against human U2OS cells xenografted in NOD/SCID mouse assessed as inhibition of tumor growth at 34 ug, iv dosed once every 2 days for 6 days successively relative to control. It counts as functional. As to conditions: dose 34 µg, time 6 day.
The subject of series [16] is U2OS. Kind of series: Antitumor activity against human U2OS cells xenografted in NOD/SCID mouse assessed as time duration with 100% survival with at 34 ug, iv dosed once every 2 days for 6 days successively relative to control. It counts as functional. As to conditions: dose 34 µg, time 6 day.
Series [17] is described as follows: Toxicity in Kunming mouse assessed as induction of adverse effect or tissue damage in major organs measured after 14 days. As to conditions: in vivo, 336 h, time 14 day.
Series [18] is described as follows: Toxicity in Kunming mouse assessed as effect on blood components measured after 14 days. As to conditions: in vivo, 336 h, time 14 day.
Series [19] in a line: Toxicity in Kunming mouse assessed as effect on body weight changes measured after 14 days. As to conditions: in vivo, 336 h, time 14 day.
The target in series [20] is T2, Interstitial collagenase (Homo sapiens) (UniProt P03956).
T2 sequence (whole entry): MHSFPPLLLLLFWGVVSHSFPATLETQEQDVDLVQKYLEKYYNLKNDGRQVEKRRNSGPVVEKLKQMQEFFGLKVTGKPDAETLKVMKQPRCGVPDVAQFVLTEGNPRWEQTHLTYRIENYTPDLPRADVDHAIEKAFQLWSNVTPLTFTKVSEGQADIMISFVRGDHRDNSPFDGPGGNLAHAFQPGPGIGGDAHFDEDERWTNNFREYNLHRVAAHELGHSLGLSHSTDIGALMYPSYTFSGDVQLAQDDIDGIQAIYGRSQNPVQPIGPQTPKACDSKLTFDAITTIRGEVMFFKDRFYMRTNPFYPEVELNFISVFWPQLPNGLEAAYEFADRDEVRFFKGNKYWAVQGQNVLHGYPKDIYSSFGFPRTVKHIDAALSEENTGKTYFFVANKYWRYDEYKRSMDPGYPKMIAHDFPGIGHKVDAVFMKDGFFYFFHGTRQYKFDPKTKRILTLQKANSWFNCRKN
Kind of series: Inhibition of MMP1 in human U2OS cells at 5 umol/L by peptide microarray-based fluorescence assay. It is filed as cell-based. As to conditions: dose 5.0 µmol/L.

Series [21] addresses T2, Interstitial collagenase (Homo sapiens). In words: Inhibition of MMP1 in human U2OS cells at 1 umol/L by peptide microarray-based fluorescence assay. It is filed as cell-based. As to conditions: dose 1.0 µmol/L.
The target of series [22] is T3, Matrilysin (Homo sapiens) (UniProt P09237).
T3 sequence (whole entry): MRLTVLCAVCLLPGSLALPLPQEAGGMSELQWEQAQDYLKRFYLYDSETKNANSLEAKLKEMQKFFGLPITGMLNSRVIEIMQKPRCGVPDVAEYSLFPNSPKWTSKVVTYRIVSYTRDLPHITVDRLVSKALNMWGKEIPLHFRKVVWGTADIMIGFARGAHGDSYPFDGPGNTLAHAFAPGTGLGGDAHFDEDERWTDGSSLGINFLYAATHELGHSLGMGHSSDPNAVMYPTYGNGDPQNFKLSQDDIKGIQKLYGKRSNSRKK
In words: Inhibition of MMP7 in human U2OS cells at 5 umol/L by peptide microarray-based fluorescence assay. It counts as cell-based. As to conditions: dose 5.0 µmol/L.

The target in another series is Stromelysin-1 (Homo sapiens, UniProt P08254). In words: Inhibition of MMP3 in human U2OS cells at 5 umol/L by peptide microarray-based fluorescence assay. It counts as cell-based. As to conditions: dose 5.0 µmol/L.
Chain of Stromelysin-1 (P08254 100-477 limits assumed): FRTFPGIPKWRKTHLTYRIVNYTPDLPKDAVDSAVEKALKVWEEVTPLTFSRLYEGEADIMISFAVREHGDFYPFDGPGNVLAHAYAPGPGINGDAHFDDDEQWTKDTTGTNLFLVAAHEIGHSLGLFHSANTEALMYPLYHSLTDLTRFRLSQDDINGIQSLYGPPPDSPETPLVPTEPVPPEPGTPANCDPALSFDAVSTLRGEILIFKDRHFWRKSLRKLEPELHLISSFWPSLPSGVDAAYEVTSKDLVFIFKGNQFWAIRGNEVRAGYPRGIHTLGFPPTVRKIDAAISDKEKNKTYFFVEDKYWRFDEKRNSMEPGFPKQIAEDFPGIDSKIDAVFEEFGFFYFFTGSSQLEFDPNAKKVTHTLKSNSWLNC
For series [23], the target named is 72 kDa type IV collagenase (Homo sapiens, UniProt P08253). Kind of series: Inhibition of MMP2 in human U2OS cells at 5 umol/L by peptide microarray-based fluorescence assay. As to conditions: dose 5.0 µmol/L. It is filed as cell-based.
Chain of 72 kDa type IV collagenase (P08253 110-660 limits assumed): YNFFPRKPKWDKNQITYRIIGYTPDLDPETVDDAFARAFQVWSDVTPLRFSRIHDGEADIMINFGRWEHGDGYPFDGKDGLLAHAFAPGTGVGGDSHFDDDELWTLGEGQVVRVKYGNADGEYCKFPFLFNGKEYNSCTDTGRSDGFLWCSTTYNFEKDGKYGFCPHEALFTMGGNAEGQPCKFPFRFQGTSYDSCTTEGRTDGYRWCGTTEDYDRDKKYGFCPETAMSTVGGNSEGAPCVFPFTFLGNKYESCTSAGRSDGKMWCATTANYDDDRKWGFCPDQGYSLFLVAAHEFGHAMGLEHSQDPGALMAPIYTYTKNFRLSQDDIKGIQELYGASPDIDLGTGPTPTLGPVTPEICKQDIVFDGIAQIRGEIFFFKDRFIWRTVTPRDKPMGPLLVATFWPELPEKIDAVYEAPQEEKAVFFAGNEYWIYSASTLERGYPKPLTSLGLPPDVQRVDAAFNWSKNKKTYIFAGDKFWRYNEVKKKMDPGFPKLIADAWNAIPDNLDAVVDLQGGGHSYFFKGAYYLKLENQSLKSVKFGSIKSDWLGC

The structures appear in SMILES notation. Activity calls are given as the source filed them. The calls are words filed in the database; no cut-off is given here.

Chain of Matrix metalloproteinase-9 (P14780 whole entry): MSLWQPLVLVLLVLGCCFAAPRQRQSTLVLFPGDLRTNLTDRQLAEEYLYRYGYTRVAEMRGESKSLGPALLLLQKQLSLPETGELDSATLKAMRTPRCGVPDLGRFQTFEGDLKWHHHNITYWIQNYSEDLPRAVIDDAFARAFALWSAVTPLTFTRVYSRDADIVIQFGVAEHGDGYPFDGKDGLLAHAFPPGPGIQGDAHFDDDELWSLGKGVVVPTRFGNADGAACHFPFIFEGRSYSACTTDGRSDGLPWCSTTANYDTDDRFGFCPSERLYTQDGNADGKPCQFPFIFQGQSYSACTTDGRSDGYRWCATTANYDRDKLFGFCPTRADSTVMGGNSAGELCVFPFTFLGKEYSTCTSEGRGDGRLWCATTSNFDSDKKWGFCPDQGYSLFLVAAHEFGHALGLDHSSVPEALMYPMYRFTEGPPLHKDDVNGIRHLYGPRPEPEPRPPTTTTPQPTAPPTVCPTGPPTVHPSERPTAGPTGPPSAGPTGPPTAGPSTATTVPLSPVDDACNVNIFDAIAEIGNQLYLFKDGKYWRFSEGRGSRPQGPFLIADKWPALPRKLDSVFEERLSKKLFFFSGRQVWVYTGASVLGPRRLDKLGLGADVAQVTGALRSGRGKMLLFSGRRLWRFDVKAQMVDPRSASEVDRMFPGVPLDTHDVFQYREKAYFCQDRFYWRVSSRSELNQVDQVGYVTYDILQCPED

In the case of `COc1cc(C2Oc3ccc([C@H]4Oc5cc(O)cc(O)c5C(=O)[C@@H]4O)cc3OC2CO)ccc1O` (stereo partly specified), the viability at 24 h, 2.5 µM in series [1], in [2], in series [8], in series [9], in [10] and in [11] was > 90% throughout. Further, the viability at 24 h, 2.5 µM in series [12] was > 90%. Further, the inhibition (at Collagenase 3 [3]; in series [4]) was > 50% each time. The inhibition entry at Collagenase 3 [5], with U2OS [7], with U2OS [13] and in the series on U2OS [14] was “Active” throughout. In addition, the IC50 (in general, the midpoint of a concentration-inhibition curve) at Collagenase 3 [6] came out at 250 nM. The TGI – broadly, how far tumour growth fell short of that in controls – in the series on U2OS [15] was 60%. In addition, the Survival in the series on U2OS [16] was found to be 43 days. In addition, the Activity entry in [17], in series [18] and in series [19] was “Non-Toxic” in each case.

Turning to `C=CC(C)(C)c1cc(/C=C/C(=O)c2ccc(O)cc2)c(OC)cc1O`, in series [20], the inhibition – broadly, the drop in the measured response relative to a control, in per cent – is > 50%.

`CNC(=O)[C@@H](NC(=O)[C@H](CC(C)C)[C@H](O)C(=O)NO)C(C)(C)C`: the inhibition entry in series [21] is “Active”.

As to `COc1ccc(-c2cc(=O)c3c(OC)c(OC)c(OC)cc3o2)cc1OC`, the inhibition (against Collagenase 3 [3]; in series [22]; on Stromelysin-1; in series [23]; in series [20]) was > 50% in each case.
